# What was measured:
# [1] = Effect on the activity of prolyl endopeptidase (PEP) was evaluated at the IC50 concentration for DPP IV and
# [2] = Effect on the activity of prolyl endopeptidase (PEP) was evaluated at 1 mM concentration for DPP IV
smiles,measurement,setting,value
CC(=O)Nc1cccc(OP(=O)(Oc2cccc(NC(C)=O)c2)C2CCCN2C(=O)C2CCCN2)c1 (configuration not stated) [2-{2-[Bis-(3-acetylamino-phenoxy)-phosphoryl]-pyrrolidine-1-carbonyl}-pyrrolidinium; chloride],IC50,[1],89 µM
same,IC50,[2],50 µM
